Assay results taken from patent US20190315814A1, “LANTIBIOTIC VARIANTS AND USES THEREOF” (priority 2016, published 2019).
Values after ≈ are worked out from the molar mass of the structure shown. Read-outs that look alike come from different tables or passages of the source.

Columns and labels:
Clostridium difficile = assay: C. difficile MIC assay (broth dilution); assay type: cell-based; conditions: Clostridioides difficile
Protocol: A minimum inhibitory concentration (MIC) assessment was performed using the anaerobic human gastrointestinal pathogen Clostridium difficile. A modification of the CLSI M11-A8 broth dilution method for Bacteroides fragilis susceptibility testing was used for C. difficile. (Methods for Dilution In Antimicrobial Susceptibility Tests for Bacteria That Grow Aerobically; Approved Standard-Eighth Edition. CLSI document M07-A8 (ISBN 1-56238-689-1). Vol. 29 No. 2. Clinical and Laboratory Standards Institute, USA, 2009). […] C. difficile was streaked and incubated on blood agar plates under anaerobic conditions. […] A 4 μL aliquot of each dilution was added to 196 μL of Reinforced Clostridial Medium (RCM), with test strains in wells of a 96 well plate. The final volume was 200 μL in each well.
Multisite variants were subsequently tested for specific antimicrobial activity in a C. difficile MIC assay (Table 10) (Methods for Antimicrobial Susceptibility Testing of Anaerobic Bacteria Approved Standard-Seventh Edition. CLSI document M11-A8 (ISBN 1-56238-790-1). Vol. 32 No. 5. Clinical and Laboratory Standards Institute, USA, 2012).

Staphylococcus aureus = assay: MIC assay against Staphylococcus aureus; assay type: cell-based; conditions: Staphylococcus aureus, ATCC700699, read-out: MIC S. aureus ATCC 700699
[1] = tested on: Mycobacterium phlei (ATCC 11758); assay: MIC assay against Mycobacterium phlei (acid-fast); assay type: cell-based; conditions: Mycolicibacterium phlei, ATCC11758; acid-fast microorganism; single site variants
[2] = tested on: Clostridium difficile UNT103-1; assay: Ileal cannulated Syrian hamster C. difficile infection model; assay type: in vivo, Golden Syrian hamsters
Protocol: Following ileal cannulation surgery and recovery, male Golden Syrian hamsters were inoculated with Clostridium difficile UNT103-1 (VA11, non epidemic (cdtB-, REA group J) Curtis Donskey, Cleveland VA Hospital, Cleveland, Ohio). On Day 1, at 24 hrs after infection, all animals received a single subcutaneous injection of clindamycin (10 mg/kg). Test article formulations were administered three times per day (TID), starting on Day 2 at 18 hours after Clindamycin injection, for 5 consecutive days (Days 2 through 6). Vancomycin (positive control) was administered once a day at 20 mg/kg on Days 2 through 6, and followed until Day 22 to assess recurrence. The cecal contents from all hamsters that died on study or euthanized at the end ([…]) were tested for C. difficile Toxin A and Toxin B (tgc BIOMICS ELISA Kit, cat# TGC-E002-1) and for C. difficile Spore counts. Spore titer was determined by incubating the cecal contents in 50% final concentration of ethanol for 60 minutes at room temperature, centrifuging and resuspending the pellet in nano-pure water. The resuspension is incubated at 65° C. for 15 minutes, centrifuged again and the pellet resuspended again in nano-pure water. […] After 48 hours of anaerobic incubation, spore counts are determined as colony forming units (CFUs).

[3] = tested on: Clostridium difficile UNT103-1; assay: Non-cannulated Syrian hamster C. difficile infection model, oral gavage; assay type: in vivo, Golden Syrian hamsters
Protocol: (§1) Following the recovery phase, male Golden Syrian hamsters were inoculated with Clostridium difficile UNT103-1 (VA11, non epidemic (cdtB-, REA group J) Curtis Donskey, Cleveland VA Hospital, Cleveland, Ohio). On Day 1, at 24 hrs after infection, all animals received a single subcutaneous injection of clindamycin (10 mg/kg). Test article formulations were administered three times per day (TID), starting on Day 2 at 18 hours after Clindamycin injection, for 5 consecutive days (Days 2 through 6), and followed until Day 22 to assess recurrence. Vancomycin (positive control) was administered once a day at 20 mg/kg on Days 2 through 6. Cecal spore counts and Toxins A and B were determined as described above

[4] = tested on: Clostridium difficile UNT103-1; assay: Second non-cannulated Syrian hamster C. difficile infection model, oral gavage dose range-finding; assay type: in vivo, Golden Syrian hamsters
Protocol: as §1, with “formulated at 3 to 5 different doses” for “formulations”, “above.” for “above”

[5] = tested on: Clostridium scindens (ATCC 35704); assay: microbe, parasite or virus in culture; conditions: ATCC35704, read-out: MIC C. scindens
[6] = tested on: Bifidobacterium breve (ATCC 15700); assay: microbe, parasite or virus in culture; conditions: ATCC15700, read-out: MIC B. breve
[7] = tested on: Lactobacillus acidophilus (CCUG 4356); assay: microbe, parasite or virus in culture; conditions: CCUG4356, read-out: MIC L. acidophilus
[8] = tested on: Peptostreptococcus anaerobius (ATCC 27337); assay: microbe, parasite or virus in culture; conditions: ATCC27337, read-out: MIC P. anaerobius
[9] = vancomycin control, 20 mg/kg once a day

`CN[C@H](CC(C)C)C(=O)N[C@H]1C(=O)N[C@@H](CC(N)=O)C(=O)N[C@H]2C(=O)N[C@H]3C(=O)N[C@H](C(=O)N[C@H](C(=O)O)c4cc(O)cc(O)c4-c4cc3ccc4O)[C@H](O)c3ccc(c(Cl)c3)Oc3cc2cc(c3O[C@@H]2O[C@H](CO)[C@@H](O)[C@H](O)[C@H]2O[C@H]2C[C@](C)(N)[C@H](O)[C@H](C)O2)Oc2ccc(cc2Cl)[C@H]1O` [Vancomycin] showed an MIC (Clostridium difficile; ATCC9689, strain ATCC 9689, first value of cell (first of two independent tests), read-out: C. difficile MIC ATCC 9689) of 4 µg/mL (≈ 2.76 µM), an MIC (Clostridium difficile; ATCC9689, strain ATCC 9689, multi-site variants, read-out: C. difficile MIC ATCC 9689) of 0.5 µg/mL (≈ 0.345 µM) and an MIC (Clostridium difficile; ATCC9689, strain ATCC 9689, second value of cell (second independent test), read-out: C. difficile MIC ATCC 9689) of 8 µg/mL (≈ 5.52 µM). The MIC (Clostridium difficile; ATCC43255, strain ATCC 43255, read-out: C. difficile MIC ATCC 43255) was 1 µg/mL (≈ 0.69 µM), the MIC (Clostridium difficile; ATCC43596, strain ATCC 43596, read-out: C. difficile MIC ATCC 43596) was 1 µg/mL (≈ 0.69 µM) and the MIC (Clostridium difficile; ATCC43597, strain ATCC 43597, read-out: C. difficile MIC ATCC 43597) was 0.5 µg/mL (≈ 0.345 µM). For the same compound, the MIC (Clostridium difficile; ATCC70057, read-out: C. difficile MIC ATCC 70057, strain ATCC 70057, first value of cell (first of two independent tests)) was 0.5 µg/mL (≈ 0.345 µM), the MIC (Clostridium difficile; ATCC70057, strain ATCC 70057, second value of cell (second independent test), read-out: C. difficile MIC ATCC 70057) was 1 µg/mL (≈ 0.69 µM) and the MIC (Clostridium difficile; ATCCBAA1805, strain ATCC BAA-1805, multi-site variants, read-out: C. difficile MIC ATCC BAA-1805) was 1 µg/mL (≈ 0.69 µM). The MIC (Clostridium difficile; ATCCBAA1808, strain ATCC BAA-1808, read-out: C. difficile MIC ATCC BAA-1808) was 0.5 µg/mL (≈ 0.345 µM), the MIC (Clostridium difficile; ATCCBAA1874, strain ATCC BAA-1874, read-out: C. difficile MIC ATCC BAA-1874) was 0.5 µg/mL (≈ 0.345 µM) and the MIC (Clostridium difficile; ATCCBAA1875, strain ATCC BAA-1875, multi-site variants, read-out: C. difficile MIC ATCC BAA-1875) was 0.5 µg/mL (≈ 0.345 µM). It also gave an MIC (Clostridium difficile; BAA1805, strain BAA-1805, single site variants, read-out: C. difficile MIC BAA-1805) of 1 µg/mL (≈ 0.69 µM), an MIC (Clostridium difficile; BAA1875, strain BAA-1875, single site variants, read-out: C. difficile MIC BAA-1875) of 1 µg/mL (≈ 0.69 µM) and an MIC (Clostridium difficile; strain 103-1 (UNT103-1), read-out: C. difficile MIC 103-1) of 1 µg/mL (≈ 0.69 µM). For the same compound, the MIC (Clostridium difficile; strain 107-1 (UNT107-1), read-out: C. difficile MIC 107-1) was 4 µg/mL (≈ 2.76 µM), the MIC (Clostridium difficile; strain BI1, read-out: C. difficile MIC BI1) was 8 µg/mL (≈ 5.52 µM) and the MIC (Staphylococcus aureus) was 2 µg/mL (≈ 1.38 µM). For the same compound, the MIC [1] was 0.25 µg/mL (≈ 0.173 µM), the “Mean LOG10 CFU/mL of feces homogenates (cecal spore counts) at Day-22” value (“Mean LOG10 CFU/mL of feces homogenates” for short) ([2]; hamster, in vivo) was 3.24 LOG10 CFU/mL and the “Percent Survival at Day-22” value ([2]; ileal cannulated hamsters, test articles TID Days 2-6, vancomycin 20 mg/kg once a day) was 33%. The “Mean LOG10 CFU/mL of feces homogenates” value ([3]; hamster, in vivo, po) was 2.96 LOG10 CFU/mL, the “Percent Survival at Day-22” value ([3]; oral gavage TID Days 2-6, vancomycin 20 mg/kg once a day) was 83% and the “Toxin A level at Day-22” value ([3]; oral gavage, first value of A/B cell, limit of detection 0.8) was 84.2 ng/mL. For the same compound, the “Toxin B level at Day-22” value ([3]; oral gavage, second value of A/B cell, limit of detection 0.8) was 8 ng/mL, the “Mean LOG10 CFU/mL of feces homogenates” value ([4]; hamster, in vivo, 20 mg/kg) was 6.66 LOG10 CFU/mL and the “Percent Survival at Day-22” value ([4]; hamster, in vivo, 20 mg/kg) was 50%. The “Toxin A level at Day-22” value [4, 9] was 292.6 ng/mL, the “Toxin B level at Day-22” value [4, 9] was 71.1 ng/mL and the MIC [5] was 1 µg/mL (≈ 0.69 µM). For the same compound, the MIC [6] was 0.5 µg/mL (≈ 0.345 µM), the MIC [7] was 1 µg/mL (≈ 0.69 µM) and the MIC [8] was 1 µg/mL (≈ 0.69 µM).
